Measurements as given in ChEMBL document CHEMBL1153165, “Solvent-free, microwave assisted synthesis of polyhalo heterocyclic ketene aminals as novel anti-cancer agents” (Bioorg Med Chem Lett, 2010).
Values after ≈ are worked out from the molar mass of the structure shown.

Assays:
Type in all cases: functional, cell-based
HL-60 = experiment: Antitumor activity against human HL60 cells by MTT assay
HepG2 = experiment: Antitumor activity against human HepG2 cells by MTT assay
SK-OV-3 = experiment: Antitumor activity against human SKOV3 cells by MTT assay
A-431 = experiment: Antitumor activity against human A431 cells by MTT assay
K562 = experiment: Antitumor activity against human K562 cells by MTT assay

SMILES | IC50 (HL-60) [µg/mL] | IC50 (HepG2) [µg/mL] | IC50 (SK-OV-3) [µg/mL] | IC50 (A-431) [µg/mL] | IC50 (K562) [µg/mL]
N#Cc1c(F)c(C#N)c(C(C(=O)c2ccccc2)=C2NCCN2)c(F)c1Nc1ccccc1 | 0.3 (≈ 0.68 µM) | 102 (≈ 231 µM) | 0.2 (≈ 0.453 µM) | 5.3 (≈ 12 µM) | 5.6 (≈ 12.7 µM)
N#Cc1c(F)c(F)c(C(C(=O)c2ccc(Cl)cc2)=C2NCCN2)c(C#N)c1F | 0.3 (≈ 0.745 µM) | 12.5 (≈ 31 µM) | 3.8 (≈ 9.43 µM) | 3.2 (≈ 7.95 µM) | 1.8 (≈ 4.47 µM)
N#Cc1c(Cl)c(Cl)c(C(C(=O)c2ccc(F)cc2)=C2NCCCN2)c(C#N)c1Cl | 2.1 (≈ 4.67 µM) | 31.8 (≈ 70.7 µM) | 10.4 (≈ 23.1 µM) | 1.1 (≈ 2.45 µM) | 0.2 (≈ 0.445 µM)
N#Cc1c(F)c(F)c(C(C(=O)c2ccc(F)cc2)=C2NCCCN2)c(C#N)c1F | 0.04 (≈ 0.0999 µM) | 11 (≈ 27.5 µM) | 0.5 (≈ 1.25 µM) | 1.8 (≈ 4.5 µM) | 2.5 (≈ 6.24 µM)
CC(=O)C(=C1NCCN1)c1c(Cl)c(F)c(C#N)c(F)c1C#N | 0.3 (≈ 0.93 µM) | 1.3 (≈ 4.03 µM) | 1.5 (≈ 4.65 µM) | 2.9 (≈ 8.99 µM) | 4.4 (≈ 13.6 µM)
N#Cc1c(F)c(F)c(C(C(=O)c2ccccc2)=C2NCCN2)c(C#N)c1F | 0.2 (≈ 0.543 µM) | 9.1 (≈ 24.7 µM) | 30.3 (≈ 82.3 µM) | 5.5 (≈ 14.9 µM) | 19.6 (≈ 53.2 µM)
N#Cc1c(F)c(F)c(C(C(=O)c2ccccc2)=C2NCCCCN2)c(C#N)c1F | 0.1 (≈ 0.252 µM) | 24.9 (≈ 62.8 µM) | 4.2 (≈ 10.6 µM) | 1.9 (≈ 4.79 µM) | 0.3 (≈ 0.757 µM)
COc1ccc(C(=O)C(=C2NCCN2)c2c(Cl)c(Cl)c(C#N)c(Cl)c2C#N)cc1 | 2.3 (≈ 5.14 µM) | 10.8 (≈ 24.1 µM) | 6.4 (≈ 14.3 µM) | 0.5 (≈ 1.12 µM) | 0.08 (≈ 0.179 µM)
COc1ccc(C(=O)C(=C2NCCN2)c2c(Cl)c(F)c(C#N)c(F)c2C#N)cc1 | 0.05 (≈ 0.121 µM) | 9.8 (≈ 23.6 µM) | 1.1 (≈ 2.65 µM) | 0.7 (≈ 1.69 µM) | 22.6 (≈ 54.5 µM)
Cc1ccc(C(=O)C(=C2NCCN2)c2c(Cl)c(F)c(C#N)c(F)c2C#N)cc1 | 0.03 (≈ 0.0752 µM) | 49.1 (≈ 123 µM) | 6.7 (≈ 16.8 µM) | 1.7 (≈ 4.26 µM) | 41.9 (≈ 105 µM)
N#Cc1c(Cl)c(Cl)c(C(C(=O)c2ccc(Cl)cc2)=C2NCCN2)c(C#N)c1Cl | 0.5 (≈ 1.11 µM) | 5.2 (≈ 11.5 µM) | 1.6 (≈ 3.54 µM) | 1.5 (≈ 3.32 µM) | 0.8 (≈ 1.77 µM)

Further lines, results first:

IC50 (HL-60) [µg/mL] | IC50 (HepG2) [µg/mL] | IC50 (SK-OV-3) [µg/mL] | IC50 (A-431) [µg/mL] | IC50 (K562) [µg/mL] | SMILES
0.04 (≈ 0.105 µM) | 29.2 (≈ 76.4 µM) | 2 (≈ 5.23 µM) | 0.5 (≈ 1.31 µM) | 0.9 (≈ 2.35 µM) | Cc1ccc(C(=O)C(=C2NCCN2)c2c(F)c(F)c(C#N)c(F)c2C#N)cc1
4.7 (≈ 12.2 µM) | 32.6 (≈ 84.7 µM) | 32.6 (≈ 84.7 µM) | 87.1 (≈ 226 µM) | 20.8 (≈ 54.1 µM) | N#Cc1c(F)c(Cl)c(C(C(=O)c2ccccc2)=C2NCCN2)c(C#N)c1F
9.1 (≈ 21.8 µM) | 10.2 (≈ 24.4 µM) | 9.9 (≈ 23.7 µM) | 2.3 (≈ 5.51 µM) | 8.5 (≈ 20.4 µM) | N#Cc1c(Cl)c(Cl)c(C(C(=O)c2ccccc2)=C2NCCN2)c(C#N)c1Cl
0.4 (≈ 1.04 µM) | 0.2 (≈ 0.519 µM) | 4.1 (≈ 10.6 µM) | 0.2 (≈ 0.519 µM) | 0.5 (≈ 1.3 µM) | CCOC(=O)C(=C1NCCN1)c1c(Cl)c(Cl)c(C#N)c(Cl)c1C#N
3.7 (≈ 10.4 µM) | 5.8 (≈ 16.3 µM) | 14.1 (≈ 39.6 µM) | 1.5 (≈ 4.22 µM) | 0.1 (≈ 0.281 µM) | CC(=O)C(=C1NCCN1)c1c(Cl)c(Cl)c(C#N)c(Cl)c1C#N
15.7 (≈ 36.4 µM) | 15.8 (≈ 36.6 µM) | 9.2 (≈ 21.3 µM) | 4.1 (≈ 9.5 µM) | 1.4 (≈ 3.24 µM) | Cc1ccc(C(=O)C(=C2NCCN2)c2c(Cl)c(Cl)c(C#N)c(Cl)c2C#N)cc1
0.3 (≈ 0.716 µM) | 47.5 (≈ 113 µM) | 8.6 (≈ 20.5 µM) | 1.8 (≈ 4.29 µM) | 1.6 (≈ 3.82 µM) | N#Cc1c(F)c(Cl)c(C(C(=O)c2ccc(Cl)cc2)=C2NCCN2)c(C#N)c1F
0.6 (≈ 1.44 µM) | 45.1 (≈ 108 µM) | 8.2 (≈ 19.7 µM) | 0.9 (≈ 2.16 µM) | 1.8 (≈ 4.32 µM) | N#Cc1c(F)c(Cl)c(C(C(=O)c2ccc(F)cc2)=C2NCCCN2)c(C#N)c1F
0.2 (≈ 0.449 µM) | 14.5 (≈ 32.5 µM) | 2.7 (≈ 6.06 µM) | 1 (≈ 2.24 µM) | 0.1 (≈ 0.224 µM) | N#Cc1c(Cl)c(Cl)c(C(C(=O)c2ccccc2)=C2NCCCCN2)c(C#N)c1Cl
0.02 (≈ 0.0595 µM) | 0.7 (≈ 2.08 µM) | 3.3 (≈ 9.81 µM) | 3.7 (≈ 11 µM) | 0.03 (≈ 0.0892 µM) | CCOC(=O)C(=C1NCCN1)c1c(F)c(F)c(C#N)c(F)c1C#N
0.1 (≈ 0.242 µM) | 27.8 (≈ 67.3 µM) | 4.6 (≈ 11.1 µM) | 1.5 (≈ 3.63 µM) | 2.1 (≈ 5.09 µM) | N#Cc1c(F)c(Cl)c(C(C(=O)c2ccccc2)=C2NCCCCN2)c(C#N)c1F
0.02 (≈ 0.0567 µM) | 2.5 (≈ 7.09 µM) | 4.9 (≈ 13.9 µM) | 3.9 (≈ 11.1 µM) | 0.09 (≈ 0.255 µM) | CCOC(=O)C(=C1NCCN1)c1c(Cl)c(F)c(C#N)c(F)c1C#N
